Here are results for 27 compounds from patent publication US4929741A, “Propiolophenone derivatives” (Hoffman-La Roche Inc., priority 1987, dated 1990).

Series [1] in a line: Acute toxicity, single oral administration. The settings on record: mouse, in vivo, read-out: Toxicity LD 50.
For series [2], the system named is lesions of the mucous membrane of the stomach. Nature of the series: Ethanol test (mucosa-protective activity). The class given is in vivo. The settings on record: Rattus norvegicus; male rats, oral 30 min before absolute ethanol; dosage reducing number of lesions by 50%; read-out: Ethanol Test ID 50. On the procedure:
The experimental procedure described hereinafter was used to determine the mucosa-protective property:
The oral administration of absolute ethanol to male rats in a dosage of 1 ml per rat leads within 1 hour to bloody lesions of the mucous membrane of the stomach. Various dosages of the substances to be tested (suspended in 0.125% carboxymethycellulose) or of the vehicle alone (control) are administered to the rats orally (1 ml per rat) 30 minutes prior to the treatment with ethanol. One hour after the administration of the ethanol the animals are killed, their stomachs are investigated for the presence of lesions and the number and the total dimension of such lesions are determined. The ID50 is that dosage of a test substance which reduces by 50% the number of lesions in comparison to the control group. […]

The next series relates to gastric acid secretion. Nature of the series: Gastric acid secretion-inhibiting activity (pylorus ligation, Shay et al.). Type of series: in vivo. The conditions noted are these: Rattus norvegicus; male pylorus-ligated rats, intraduodenal, 5 h; 50% decrease of the secretion; read-out: Gastric acid secretion-inhibition, ID 50. On the procedure:
The test procedure described hereinafter was used to determine the gastric acid secretion-inhibiting activity:
The pylorus of male rats is ligated under slight ether narcosis in accordance with Shay et al., Gastroenterology 5. 43 (1945). The substances to be tested, suspended in 0.5% carboxymethylcellulose, are administered intraduodenally. Control animals are treated only with the vehicle. Five hours after the ligation the animals are killed, the volume and acidity of their gastric juice are determined and the values obtained are compared with those of control animals. The ID50 is that dosage of a test substance which brings about a 50% decrease of the secretion in comparison to the control animals. In the following Table there are given for a series of representative compounds of formula I and for two compounds of formula II the results of the testing with respect to their mucosa-protective activity ("ethanol test") and to their gastric acid secretion-inhibiting activity. Moreover, this Table contains data concerning the acute toxicity (LD50 in the case of single oral administration to mice).

The mark [3] stands for this setting: single oral administration to mice.

Read-outs that look alike come from different tables or passages of the source.

`COc1ccc(C(=O)C#CC(=O)O)c(OC)c1OC` [K, 3-(2,3,4-trimethoxybenzoyl)-propiolic acid]: the LD50 in series [1] (setting [3]) fell in the range of 500 to 1000 mg/kg. For the same compound, the ED50 in series [2] came out at 3.4 mg/kg.

In the case of `COC(=O)C#CC(=O)c1ccc(F)cc1` [M, methyl 3-(4-fluorobenzoyl)propiolate], the LD50 in series [1] (setting [3]) was 1250 to 2500 mg/kg. Further, the ED50 in series [2] is 4.2 mg/kg.

`CCOC(C)OCC#CC(=O)c1ccc(OC)c(OC)c1OC` (stereo not shown) [W, 4-(1-ethoxyethoxy)-1-(2,3,4-trimethoxyphenyl)-2-butyn-1-one]: the results for the ED50 (in the series with gastric acid secretion; in series [2]) were 9 mg/kg and 0.8 mg/kg, respectively. Besides, the LD50 in series [1] (setting [3]) lay within 312 to 625 mg/kg.

Take `COCCOCCOC(=O)C#CC(=O)c1cc(OC)c(OC)c(OC)c1` [F, 2-(2-methoxyethoxy)ethyl 3-(3,4,5-trimethoxybenzoyl)propiolate]: the LD50 in series [1] (setting [3]) was more than 5000 mg/kg. Also, the ED50 in series [2] is 2.9 mg/kg.

As to `COc1ccc(C(=O)C#CCO)c(OC)c1OC` [X, 4-hydroxy-1-(2,3,4-trimethoxyphenyl)-2-butyn-1-one], the ED50 came to 4 mg/kg in the series with gastric acid secretion and 0.8 mg/kg in series [2]. For the same compound, in series [1] (setting [3]), the LD50 lay in the range of 156 to 312 mg/kg.

Turning to `Cc1ccc(C(=O)C#CCO)cc1` [Q, 4-hydroxy-1-(4-methylphenyl)-2-butyn-1-one], the LD50 in series [1] (setting [3]) lay within 80 to 156 mg/kg. The ED50 in series [2] came out at 1.5 mg/kg.

`COCCOCCOC(=O)C#CC(O)c1cc(OC)c(OC)c(OC)c1` (stereo not shown) [Bb, 2-(2-methoxyethoxy)ethyl 4-hydroxy-4-(3,4,5-trimethoxyphenyl)-2-butynoate]: the LD50 in series [1] (setting [3]) was 625 to 1250 mg/kg. Further, the ED50 in series [2] was found to be 4 mg/kg.

Consider `COc1ccc(OC)c(C(=O)C#CC(=O)O)c1` [I, 3-(2,5-dimethoxybenzoyl)propiolic acid], for which the LD50 in series [1] (setting [3]) was 625 to 1250 mg/kg. Further, in series [2], the ED50 stood at 1.9 mg/kg.

In the case of `CSc1ccc(C(=O)C#CCO)cc1` [Y, 4 hydroxy-1-[4-(methylthio)phenyl]-2-butyn-1-one], the ED50 with gastric acid secretion came out at 2.7 mg/kg; in series [2], 1 mg/kg. In addition, in series [1] (setting [3]), the LD50 was in the range of 156 to 312 mg/kg.

Consider `COc1cc(C(=O)C#CC(C)O)cc(OC)c1OC` (stereo not shown) [V, 4-hydroxy-1-(3,4,5-trimethoxyphenyl)-2-pentyn-1-one], for which the results for the ED50 (with gastric acid secretion; in series [2]) were 3.1 mg/kg and 1.2 mg/kg, respectively. For the same compound, the LD50 in series [1] (setting [3]) fell in the range of 156 to 312 mg/kg.

On to `COc1cc(C(=O)C#CCO)cc(OC)c1OC` [B, 4-hydroxy-1-(3,4,5-trimethoxyphenyl)-2-butyn-1-one], for which the ED50 was found to be 18 mg/kg in the series on gastric acid secretion and 1.9 mg/kg in series [2]. Besides, in series [1] (setting [3]), the LD50 is 156 to 312 mg/kg.

In the case of `COC(=O)C#CC(=O)c1cc(OC)c(OC)c(OC)c1` [N, methyl 3-(3,4,5-trimethoxybenzoyl)propiolate], the values for the ED50 (in the series with gastric acid secretion; in series [2]) were more than 100 mg/kg and 4.2 mg/kg, respectively. In series [1] (setting [3]), the LD50 is more than 5000 mg/kg.

As for `COC(=O)C#CC(=O)c1ccc(OC)c(OC)c1OC` [D, methyl 3-(2,3,4-trimethoxybenzoyl)propiolate], in series [1] (setting [3]), the LD50 fell in the range of 625 to 1250 mg/kg. Further, in series [2], the ED50 is 2.1 mg/kg.

Consider `COC(=O)C#CC(=O)c1cc(OC)ccc1OC` [H, methyl 3-(2,5-dimethoxybenzoyl)propiolate], for which the LD50 in series [1] (setting [3]) is more than 5000 mg/kg. In series [2], the ED50 amounted to 2.2 mg/kg.

For `COC(=O)C#CC(O)c1ccc2c(c1)OCO2` (stereo not shown) [Aa, methyl 4-hydroxy-4-[3,4-(methylenedioxy)phenyl]-2-butynoate], in series [1] (setting [3]), the LD50 fell in the range of 312 to 625 mg/kg. Besides, the ED50 in series [2] came to 1.4 mg/kg.

On to `COC(=O)C#CC(=O)c1ccc(O)cc1` [E, methyl 3-(4-hydroxybenzoyl)propiolate], for which the LD50 in series [1] (setting [3]) lay within 312 to 625 mg/kg. The ED50 in series [2] is 1.2 mg/kg.

As to `O=C(O)C#CC(=O)c1ccc2c(c1)OCO2` [A, 3-[3,4-(Methylenedioxy)benzoyl]propiolic acid], the ED50 with gastric acid secretion turned out to be 42 mg/kg; in series [2] it was 1.2 mg/kg. For the same compound, the LD50 in series [1] (setting [3]) lay within 625 to 1250 mg/kg.

`COc1cc(C(=O)C#CC(=O)N(C)C)cc(OC)c1OC` [O, N,N-dimethyl-3-(3,4,5-trimethoxybenzoyl)propiolamide]: the ED50 with gastric acid secretion is 28 mg/kg; in series [2], 2.8 mg/kg. Also, in series [1] (setting [3]), the LD50 was in the range of 312 to 625 mg/kg.

In the case of `O=C(C#CCO)c1ccc(F)cc1` [P, 1-(4-fluorophenyl)-4-hydroxy-2-butyn-1-one], the LD50 in series [1] (setting [3]) fell in the range of 80 to 156 mg/kg. In series [2], the ED50 came to 0.9 mg/kg.

Regarding `COCCOCCOC(=O)C#CC(=O)c1ccc(OC)cc1` [G, 2-(2-methoxyethoxy)ethyl 3-(4-methoxybenzoyl)propiolate], in series [1] (setting [3]), the LD50 lay within 1000 to 2000 mg/kg. In series [2], the ED50 turned out to be 2.1 mg/kg.

Take `O=C(C#CCO)c1ccc2c(c1)OCO2` [U]: in series [1] (po), the LD50 lay within 80 to 156 mg/kg. For the same compound, the ED50 in series [2] stood at 1.1 mg/kg.

As to `COc1ccc(C(=O)C#CC(=O)O)cc1` [C, 3-(4-methoxybenzoyl)propiolic acid], the LD50 in series [1] (setting [3]) was in the range of 625 to 1250 mg/kg. The ED50 in series [2] was 1.4 mg/kg.

For `O=C(C#CCO)c1ccc(Cl)cc1` [S, 1-(4-chlorophenyl)-4-hydroxy-2-butyn-1-one], the LD50 in series [1] (setting [3]) is 80 to 156 mg/kg. Also, the ED50 in series [2] came to 1.2 mg/kg.

In the case of `COCCOCCOC(=O)C#CC(=O)c1ccc2c(c1)OCO2` [J, 2-(2-methoxyethoxy)ethyl 3-[3,4-(methylenedioxy)-benzoyl]propiolate], the ED50 was more than 100 mg/kg with gastric acid secretion and 2.3 mg/kg in series [2]. In series [1] (setting [3]), the LD50 is 1250 to 2500 mg/kg.

With `COc1cc(C(=O)C#CC(=O)O)cc(OC)c1OC` [L, 3-(3,4,5-trimethoxybenzoyl)-propiolic acid], the ED50 in the series on gastric acid secretion is 56 mg/kg; in series [2], 4.1 mg/kg. Besides, the LD50 in series [1] (setting [3]) is 1000 to 2000 mg/kg.

Regarding `COc1ccc(C(=O)C#CCO)cc1` [T, 4-hydroxy-1-(4-methoxyphenyl)-2-butyn-1-one], in series [1] (setting [3]), the LD50 fell in the range of 40 to 80 mg/kg. Also, the ED50 in series [2] is 1.2 mg/kg.

Take `CCOC(C)OCC#CC(=O)c1ccc(F)cc1` (stereo not shown) [R, 4-(1-ethoxyethoxy)-1-(4-fluorophenyl)-2-butyn-1-one]: the LD50 in series [1] (setting [3]) was 80 to 156 mg/kg. The ED50 in series [2] was determined as 1.4 mg/kg.
